Experiments:
brain phospholipids = test: Brain phospholipid levels after UMP diet and/or PUFA gavage; type: in vivo, gerbil; conditions: for brain phospholipid levels: 3 weeks, summary of Table 6; for increase in brain total phospholipids over control: DHA 300 mg/kg/day gavage, UMP 0.5% of chow
Procedure: (§1) Cells were homogenized in 100 volumes of ice-cold deionized water using a tissue degrader (Polytron PT 10-35, Kinematica A G, Switzerland); 1 ml of aliquots were then mixed with 3 ml of chloroform+methanol mixture (2:1 v/v) and vortexed vigorously for 30 seconds. After cooling for 1 h on ice, the mixture was mixed sequentially with 3 ml of chloroform+methanol mixture (2:1 v/v) and 1 ml of ice-cold deionized water. The mixture was vortexed vigorously and allowed to stand overnight in the cold room (18 h). The organic (lower) and aqueous (upper) phases of the mixtures were separated by centrifugation (10 min at 4° C.; 1000 g). An aliquot (2 ml) of the upper phase was used for determination of CDP-Choline (see below), and 0.1-0.4 ml aliquots of the lower phase were dried under vacuum for phospholipid analysis. Residues of 0.1 ml aliquots of the lower phase were assayed for total phospholipid content by measuring phosphorus. Residues of 0.4 ml aliquots of the lower phase were reconstituted in 40 μl methanol and subjected to thin-layer chromatography using silica G plates (Adsorbosil Plus-1®, Alltech), and a system consisting of chloroform/ethanol/triethylamine/water (30:34:30:8) as the mobile phase. Phospholipid standards were used to identify the corresponding bands under UV light after the plates were sprayed with 0.1% diphenylhexatriene in petroleum ether. Bands for individual phospholipid classes (PC, PE, SM, PS and PI) were scraped off the plates and extracted into 1 ml of methanol; dried under vacuum; and assayed for phosphorus content. Total phosphorus was determined by comparison with standard curves by using KH2PO4 run with each assay. To each sample was added 0.5 ml of 4.5% HclO4/27% H2SO4 and tubes were heated at 180° C. for 3 h. After cooling to room temperature, 5 ml of the color reagent (a 10:1 dilution of solutions containing 2.5 mg/ml ammonium molybdate, 8.2 mg/ml sodium acetate and 100 mg/ml ascorbic acid respectively) was added and the tubes were incubated for 2 h, 37° C. Absorbance was measured spectrophotometrically at 820 nm. Phospholipid mass was determined by multiplying the phosphorus content by 25.
Control standard diet (Table 4) consisted of Teklad Global 16% protein rodent diet (Harlan Teklad, Madison, Wis.), which contained 0.1% choline chloride (CC), corresponding to a daily dose of 50 mg/kg/day. UMP was provided as 0.5% UMP.2Na^+ weight/weight, added to the control diet, also prepared by Harlan Teklad, corresponding to 240 mg/kg/day UMP. DHA was administered as 300 mg/kg/day in 200 microliter (mcL)/day 5% Arabic Gum solution, while groups not receiving DHA were administered vehicle (5% Arabic Gum) alone. DHA was provided by Nu-Chek Prep (Elysian, Minn.) and UMP by Numico (Wagenigen, NL).
Gerbils were anesthetized with ketamine and xylazine (80 and 10 mg/kg bwt, i.p.) and sacrificed by immersing the head into liquid nitrogen for 2 min, followed by decapitation. Brains were immediately and quickly (30 seconds) removed using a bone rongeur and stored at −80° C.
Frozen brain hemispheres were weighed and homogenized in 100 volumes of ice-cold deionized water using a tissue degrader (Polytron PT 10-35, Kinematica A G, Switzerland), then analyzed as described in Example 1.
Protein in whole brain homogenate sample was measured for using bicinchoninic acid reagent (Perkin Elmer, Norwalk, Conn., USA). DNA was measured by measuring 460 nm emission of samples on a fluorometer in the presence of bisbenzimidizole, a fluorescent dye known as Hoechst H 33258 (American Hoechst Corporation), which has an excitation maximum at 356 nm and an emission maximum of 458 when bound to DNA.
Adult gerbils were administered control standard diet (Table 4) with our without 0.5% UMP and/or 300 mg/kg/day DHA, EPA, or AA. Groups not receiving DHA were administered vehicle (5% Arabic Gum) alone.

PC-12 cells = test: 14C-choline incorporation into phospholipids in PC-12 cells; type: cell-based; conditions: for Phosphatidylcholine (PC) synthesis (incorporation of 14C label into PC): 18 hr pre-incubation with 5 μM fatty acid, FIG. 1
Procedure: PC-12 cells were maintained in Dulbecco's modified Eagle's medium (DMEM)+10% fetal bovine serum (FBS). For experiments, cells were grown in quintuplicate collagen-coated 35 millimeter (mm) dishes. Cells were incubated for 18 hours (hr) in serum-free DMEM containing 28 μM choline+/−5 micromolar (μM) of DHA, oleic acid, or palmitic acid. Cells were then labeled for 2.5 hr with 0.5 microcurie (μCi)/ml ^14C-choline in serum-free DMEM containing 10-micromolar (μM) choline.
as §1, with “To each sample was added 0.5 ml of 4.5% HclO4/27% H2SO4 and tubes were heated at 180° C. for 3 h. After cooling to room temperature, 5 ml of the color reagent (a 10:1 dilution of solutions containing 2.5 mg/ml ammonium molybdate, 8.2 mg/ml sodium acetate and 100 mg/ml ascorbic acid respectively) was added and the tubes were incubated for 2 h, 37° C.” left out
In order to assess the effect of omega-3 fatty acids on phospholipid synthesis, PC-12 cells were incubated with ^14C-labeled choline, following an 18-hour pre-incubation with or without DHA. Incorporation of label into phospholipids was then measured. […]
To further characterize the stimulation of phospholipid synthesis by omega-3 fatty acids, PC-12 cells were pre-treated with different doses of DHA and exposed to labeled choline as described in Example 1, then incorporation of ^14C-label into phospholipids was measured. […]

SHSY-5Y cells = test: 14C-choline incorporation into phospholipids in SHSY-5Y cells; type: cell-based, human; conditions: for phospholipid synthesis: 18 hr with 10 μM fatty acid, FIG. 3A
Procedure: as §1
SHSY-5Y cells were grown to near confluency in DMEM+10% FBS in 35 mm dishes. Cells were incubated for 18 hr in serum-free DMEM+1% FBS containing 30 μM choline+/−10 μM of DHA, arachidonic acid, or palmitic acid. Cells were then labeled, and labeled phospholipids were quantified as described for Example 1.
DHA was dissolved in ethanol to a […] concentration and frozen in 10 microliter aliquots at −80° C. For each experiment, one aliquot was diluted in ethanol to 10 micromolar; the volume giving the desired final solution in incubation medium was mixed with an equal volume of BSA solution (1 gm/ml).

brain CDP-choline = test: Brain CDP-choline and CDP-ethanolamine levels (HPLC); type: in vivo, gerbil; conditions: 28 days; for brain CDP-choline levels: FIG. 5A; for brain CDP-ethanolamine levels: FIG. 5B
Procedure: FIG. 5. Effects of DHA on brain CDP-choline levels (A) and CDP-ethanolamine levels (B). Groups of 8 gerbils received either a control or a UMP-containing diet, and, by gavage, DHA (in a vehicle of 5% gum Arabic solution) or 5% gum Arabic solution alone for 28 days. On the 29th day brains were harvested and assayed for CDP-choline. Data are presented as means±SEM. Statistical analysis was performed using one- or two-way ANOVA followed by Tukey test. a: P<0.05 when compared with the values for control diet plus vehicle group; b: P<0.05 when compared with values for UMP diet plus vehicle group.
Aliquots (2 ml) of the upper (aqueous) phase were dried under a vacuum, reconstituted, and injected into an HPLC. The dried samples were reconstituted in 100-200 μl water and were analyzed by HPLC on an anion exchange column (Alltech Hypersil APS-2, […], 250×4.6 mm). CDP-choline was eluted with a linear gradient of buffers A (H3PO4, 1.75 mM, pH 2.9) and B (NaH2PO2, 500 mM, pH 4.5) from 0 to 100% B over period of 30 min. With this system, CDP-choline was resolved from closely co-eluting substances such as UMP in an isocratic system over a period of 40 min. The retention time for CDP-choline was 9.5 min. The column was washed with buffer B at the end of each experiment and every several days to remove retained nucleotides. Individual nucleotide peaks were detected by UV absorption at 280 nm and were identified by comparison with the positions of authentic standards, as well as by the addition of nucleotide standards to samples.

| SMILES | brain phospholipid levels (brain phospholipids; gerbils) | increase in brain total phospholipids over control (brain phospholipids; gerbils, 4 weeks) [%] | increase in brain levels of PC (brain phospholipids; vs control, Table 5A) [%] | increase in brain levels of PE (brain phospholipids; vs control, Table 5A) [%] | increase in brain levels of PI (brain phospholipids; vs control, Table 5A) [%] | Phosphatidylcholine (PC) synthesis (incorporation of 14C label into PC) (PC-12 cells) | phospholipid synthesis (SHSY-5Y cells) | brain CDP-choline levels (brain CDP-choline) | brain CDP-ethanolamine levels (brain CDP-choline) | further results |
| --- | --- | --- | --- | --- | --- | --- | --- | --- | --- | --- |
| CCC=CCC=CCC=CCC=CCC=CCC=CCCC(=O)O [DHA, 4,7,10,13,16,19-docosahexaenoic acid] | increased | 12 | 22 | 20 | 52 | significantly increased | not | decreased | decreased | brain phospholipid, pmol phospholipid per milligrams (mg) protein (brain phospholipids; FIG. 4A, gerbils, 4 weeks, ANOVA vs control): statistically significant effect; increase in brain levels of sphingomyelin (brain phospholipids; vs control, Table 5A): 24%; synthesis of phospholipids (incorporation of 14C-label) (PC-12 cells; different doses of DHA, dose-dependent, FIG. 2): increased |
| O=c1ccn([C@@H]2O[C@H](COP(=O)(O)O)[C@@H](O)[C@H]2O)c(=O)[nH]1 [UMP, uridine monophosphate] |  | 5 | 13 | 29 | 48 |  |  | decreased | decreased | effects on brain phospholipids (brain phospholipids; After 1 week of treatment): no significant effects; PtdEtn (brain phospholipids; Table 5 part A, gerbil brain): 84 ± 8 nmol/mg prt; increases in all 5 of the phospholipids (brain phospholipids; Treatment for 3 weeks, Table 5B): smaller but still significant increases |
| CCCCCC=CCC=CCC=CCC=CCCCC(=O)O [arachidonic acid, 5,8,11,14-eicosatetraenoic acid] | increased |  |  |  |  |  | enhanced |  |  | synthesis of total phospholipids, PC, and phosphatidylethanolamine (SHSY-5Y cells; range of dosages, dose-dependent, FIG. 3B): increased |
| CCCCCCCCCCCCCCCC(=O)O [palmitic acid, reference compound] |  |  |  |  |  | not | not |  |  |  |
| CCC=CCC=CCC=CCC=CCC=CCCCC(=O)O [EPA, 5,8,11,14,17-eicosapentaenoic acid] | increased |  |  |  |  |  |  |  |  |  |
| CCCCCCCC/C=C\CCCCCCCC(=O)O [oleic acid, reference compound] |  |  |  |  |  | not |  |  |  |  |

— patent US10525071B2, “Compositions containing PUFA and methods of use thereof” (MASSACHUSETS INSTITUE OF TECHNOLOGY, priority 2005, dated 2020)
